Test [1] deals with Enzyme of the genus Neurospora (glycerol oxidase). The test is described as follows: Inhibition of enzyme activity by 1 mM inhibitors (4-AA method). The test is classed as biochemical, Neurospora crassa KY-462. On the set-up: key: % of activity without inhibitor (no inhibitor = 100). Here is the method:
(§1) The enzyme activity is expressed by "unit." A "unit" of the enzyme activity is defined as that amount of enzyme which will decompose 1μ mole of glycerol at 37° C. in 1 minute in the presence of oxygen. The determination of the enzyme activity is carried out as follows: glycerol is reacted with glycerol oxidase with stirring to form hydrogen peroxide, and 4-aminoantipyrine and phenol are reacted with the resulting hydrogen peroxide in the presence of peroxidase to derive quinoneimine pigment. The optical density at 500 nm of the resulting quinoneimine pigment is measured to determine the amount of generated hydrogen peroxide, whereby the enzyme activity is determined (which will be hereinafter referred to as "4-AA method").
(§2) Enzymes activities obtained by adding 1 mM of various inhibitors are shown in Table 1, the activity of the enzyme with no addition of the inhibitor being defined as 100. The activities are measured according to 4-AA method deriving a pigment of 4-aminoantipyrine system from the generated H2 O2.
(§3) Enzymological and physico-chemical properties of glycerol oxidase thus obtained are described below (as glycerol oxidase, the respective purified preparates obtained in Examples 1 and 2, are used).
(§4) Determination of the enzyme activity is carried out by reacting hydrogen peroxide generated by the enzyme with 4-aminoantipyrine and phenol in the presence of peroxidase to obtain quinoneimine pigment, and quantitatively determining the resulting quinoneimine pigment.
(§5) The reagents (1)-(6) are mixed in a test tube, and then shaken at 37° C. for 5 minutes. Then, enzyme solution is added thereto, and thus obtained mixture is made up to 3 ml with ammonium buffer solution. Reaction is carried out at 37° C. for 10 minutes with shaking. On the other hand, similar procedure is repeated using water in place of the test solution as a reference. The optical density of the reaction solution at 500 nm is measured, and a difference from the control is determined as Δ OD (optical density).
(§6) On the other hand, the absorption coefficient of 0.5 mM of quinoneimine pigment is reported as 5.33 [Clin. Chem. 20, 470 (1974)], and thus, if the optical density (Δ OD) at 500 nm of 3 ml of the reaction solution obtained according to the foregoing operational procedure IV-(c) is represented by a, the desired enzyme activity (A) per milliliter of the enzyme solution is calculated from the following formula: [formula]

Test [2] concerns Enzyme of the genus Aspergillus (glycerol oxidase). The description is as above. Format: biochemical, Aspergillus japonicus KY-45. On the set-up: key: % of activity without inhibitor (no inhibitor = 100). Here is the method:
as §1, §2, §3, §4, §5, §6

For test [3] the test system is unchanged. In words: Substrate specificity, relative activity by 4-AA method. Format: biochemical, Aspergillus japonicus KY-45. The conditions noted are these: substrate equimolar to glycerol. Here is the method: as §1, §3
(§7) The relative activity is measured using other substrates in equimolar amounts to that of glycerol in the procedure for measuring the activity according to 4-AA method.
(§8) The relative activities on other substrates are given in Table 3, the activity on glycerol being defined as 100.
as §5

Test [4] has as its system Enzyme of the genus Neurospora (glycerol oxidase). Described as above. Format: biochemical, Neurospora crassa KY-462. The following applies: substrate equimolar to glycerol. Here is the method: as §1, §3, §7, §8, §5
The mark [5] stands for this setting: 1 mM inhibitor, Enzyme of the genus Neurospora, 4-AA method.
[6] abbreviates: 1 mM inhibitor, Enzyme of the genus Aspergillus, 4-AA method.

Like-named read-outs stand apart in the source and are kept apart here.

Consider `N[C@@H](CS)C(=O)O` [cysteine], for which the “Enzyme activity on adding inhibitor (activity with no inhibitor defined as 100)” value in test [1] (setting [5]) turned out to be 60.
As for `O=S(=O)([O-])[O-].[Cu+2]` [CuSO4], the “Enzyme activity on adding inhibitor (activity with no inhibitor defined as 100)” value stood at 10 in test [2] (setting [6]) and 20 in test [1] (setting [5]).
As for `O=C(O)c1cc[c]([Hg][Cl])cc1` [PCMB, p-chloromercuribenzoate], the “Enzyme activity on adding inhibitor (activity with no inhibitor defined as 100)” value in test [2] (setting [6]) was 50; in test [1] (setting [5]) it was 108.
As for `Cc1ccc2ccc3ccc(C)nc3c2n1` [neocuproine], the “Enzyme activity on adding inhibitor (activity with no inhibitor defined as 100)” value in test [2] (setting [6]) stood at 100.
As to `CC(O)C(C)O` (stereo not shown) [2,3-butanediol], the “Relative activity on substrate (activity on glycerol defined as 100)” value (“Relative activity on substrate” below) was 0.3 in test [3] and 0 in test [4].
Taken in the same sequence, the figures for `CC(O)CCO` (stereo not shown) [1,3-butanediol] were 2.0 and 0.
Consider `[N-]=[N+]=[N-].[Na+]` [NaN3], for which the “Enzyme activity on adding inhibitor (activity with no inhibitor defined as 100)” value in test [2] (setting [6]) was determined as 20.
As to `c1cnc2c(c1)ccc1cccnc12` [0-phenanthroline], the “Enzyme activity on adding inhibitor (activity with no inhibitor defined as 100)” value in test [2] (setting [6]) amounted to 90.
With `CCO` [ethanol], the “Relative activity on substrate” value in test [3] and in test [4] was 0 in each case.
As to `O=S(=O)([O-])[O-].[Fe+2]` [FeSO4], the “Enzyme activity on adding inhibitor (activity with no inhibitor defined as 100)” value in test [1] (setting [5]) was found to be 0.
With `[Cl][Hg][Cl]` [HgCl2], the “Enzyme activity on adding inhibitor (activity with no inhibitor defined as 100)” value in test [2] (setting [6]) is recorded as 20; in test [1] (setting [5]), 23.
Consider `c1ccc(-c2ccccn2)nc1` [α,α'-dipyridyl], for which, in test [2] (setting [6]), the “Enzyme activity on adding inhibitor (activity with no inhibitor defined as 100)” value is 85.
On to `O=[N+]([O-])[O-].[Ag+]` [AgNO3], for which the “Enzyme activity on adding inhibitor (activity with no inhibitor defined as 100)” value in test [2] (setting [6]) was found to be 30.
Take `CCN1C(=O)C=CC1=O` [N-ethylmaleimide]: the “Enzyme activity on adding inhibitor (activity with no inhibitor defined as 100)” value in test [2] (setting [6]) was 100.
Regarding `OCCCO` [1,3-propanediol], the “Relative activity on substrate” value amounted to 3.3 in test [3] and 0 in test [4].
As to `O=S(=O)([O-])[O-].[Zn+2]` [ZnSO4], in test [1] (setting [5]), the “Enzyme activity on adding inhibitor (activity with no inhibitor defined as 100)” value came to 23.
`CC(=O)[O-].CC(=O)[O-].[Pb+2]` [Pb(CH3 COO)2]: the “Enzyme activity on adding inhibitor (activity with no inhibitor defined as 100)” value in test [2] (setting [6]) is listed as 15.
Take `CC(C)O` [isopropyl alcohol]: the “Relative activity on substrate” value in test [3] and in test [4] was 0 in each case.
For `Cl.NO` [NH2 OH--HCl], the “Enzyme activity on adding inhibitor (activity with no inhibitor defined as 100)” value in test [2] (setting [6]) and in test [1] (setting [5]) was 0 in each case.
Take `CC(O)CO` (stereo not shown) [1,2-propanediol]: the “Relative activity on substrate” value was 10.5 in test [3] and 0 in test [4].
In the case of `O=C(O)CN(CCN(CC(=O)O)CC(=O)O)CC(=O)O` [EDTA], the “Enzyme activity on adding inhibitor (activity with no inhibitor defined as 100)” value in test [2] came out at 105; in test [1] (setting [5]), 80.
Consider `OCC(O)CO` [glycerol], for which the “Relative activity on substrate” value in test [3] and in test [4] was 100 throughout.
Take `OCCCCO` [1,4-butanediol]: the “Relative activity on substrate” value came to 0.3 in test [3] and 0 in test [4].
Consider `Oc1cccc2cccnc12` [8-hydroxyquinoline], for which, in test [2], the “Enzyme activity on adding inhibitor (activity with no inhibitor defined as 100)” value was determined as 90.
As to `O[C@H](CS)[C@H](O)CS` (racemic) [dithiothreitol], in test [2] (setting [6]), the “Enzyme activity on adding inhibitor (activity with no inhibitor defined as 100)” value is reported as 100.
With `O=C(O)CI` [iodoacetate], the “Enzyme activity on adding inhibitor (activity with no inhibitor defined as 100)” value in test [1] is listed as 100.
Regarding `O=P(O)(O)OCC(O)CO` (stereo not shown) [Glycerol-3-phosphoric acid], the figures for the “Relative activity on substrate” value in test [3] and in test [4] were 0.4 and 21, respectively.
Regarding `CCCO` [n-propyl alcohol], the “Relative activity on substrate” value in test [3] and in test [4] was 0 throughout.

These data come from patent publication US4202941A, “Glycerol oxidase and process for the production thereof and method for the quantitative determination of glycerol by glycerol oxidase” (Kyowa Hakko Kogyo, Co. Ltd., priority 1977, dated 1980).
